{
  "source": "patent US6294519A",
  "about": "“Method for treating ischemia” (University of Kentucky Research Foundation, priority 2000, dated 2001)",
  "system": "focal middle cerebral arterial occlusion (MCAO) ischemia",
  "conditions": "for neurological deficits (behavior ranking 0 to 3): 4 mg/kg i.p. at 6.5, 4.5, 2.5 and 0.5 h prior to ischemia, 24 h reperfusion, mean±SEM, n=8, 0=normal, 3=severe; for neurological deficits (behavior ranking 0 to 3) / infarct volume reduction compared to control animals: 1 h MCAO; for infarct volume reduction compared to control animals / differences in MABP, pO2, pCO2, pH or rectal temperature versus control animals: 4 mg/kg i.p. x4 prior to ischemia; for infarct volume reduction compared to control animals / statistical significance of the infarct volume difference versus control: after 24 h of reperfusion; for statistical significance of the infarct volume difference versus control: significance at p<0.05; for differences in MABP, pO2, pCO2, pH or rectal temperature versus control animals: post ischemia",
  "data": [
    {"compound": "CC(C)C[C@@H](NC(=O)[C@H](Cc1ccccc1)NC(=O)CNC(=O)[C@@H](C)NC(=O)[C@@H](N)Cc1ccc(O)cc1)C(=O)O", "note": "[DADLE, Tyr-D-Ala-Gly-Phe-D-Leu-enkephalin]", "values": [
      {"measurement": "neurological deficits (behavior ranking 0 to 3)", "result": "1.73±0.20"},
      {"measurement": "infarct volume reduction compared to control animals", "result": 12, "unit": "%"},
      {"measurement": "statistical significance of the infarct volume difference versus control", "result": "not statistically significant"},
      {"measurement": "differences in MABP, pO2, pCO2, pH or rectal temperature versus control animals", "result": "no significant differences"}
    ]},
    {"compound": "CC(C)[C@H](NC(=O)[C@H](CC(=O)O)NC(=O)[C@H](Cc1ccccc1)NC(=O)[C@@H](C)NC(=O)[C@@H](N)Cc1ccc(O)cc1)C(=O)N[C@H](C(=O)NCC(N)=O)C(C)C", "note": "[deltorphin, Tyr-Ala-Phe-Asp-Val-Val-Gly-NH2]", "values": [
      {"measurement": "neurological deficits (behavior ranking 0 to 3)", "result": "0.44±0.11"},
      {"measurement": "infarct volume reduction compared to control animals", "result": 42, "unit": "%"},
      {"measurement": "statistical significance of the infarct volume difference versus control", "result": "significantly reduced"},
      {"measurement": "differences in MABP, pO2, pCO2, pH or rectal temperature versus control animals", "result": "no significant differences"}
    ]}
  ]
}
